Data: US12370188B2, “Formulations of dazucorilant, a glucocorticoid receptor modulator” (Corcept Therapeutics Incorporated, priority 2022, dated 2025)

Experiment: Solubility of Compound I in water
Format: physicochemical
Excerpt: Compositions prepared by routine methods, even if able to solubilize small amounts of Compound I, have proven unstable with Compound I falling out of solution, or in which Compound I is found to be subject to rapid degradation, or incompatible with a pharmaceutically acceptable capsule.

solubility in water: practically insoluble
SMILES: O=C(c1ccccn1)[C@]12Cc3cnn(-c4ccc(F)cc4)c3C=C1CCN(S(=O)(=O)c1ccc(C(F)(F)F)cc1)C2 [Compound I, (R)-(1-(4-fluorophenyl)-6-((4-(trifluoromethyl)phenyl)sulfonyl)-4,4a,5,6,7,8-hexahydro-1H-pyrazolo[3,4-g]isoquinolin-4a-yl)(pyridin-2-yl)methanone]
